Results reported in US10377770B2 (Novartis AG, priority 2015, dated 2019).

What follows are compounds tested against C-Raf FL (full length CRAF with Y340E and Y341E activating mutations, co-expressed with h14-3-3 zeta) (Homo sapiens (Human), UniProt P04049, Y340E/Y341E) (assay: In vitro Raf activity determination, AlphaScreen p-MEK readout, c-Raf (C-Raf FL)). Conditions: c-Raf approximately 4 nM, ATP 1 μM, pre-incubation 60 minutes, reaction 1 hour.
Chain of C-Raf FL (full length CRAF with Y340E and Y341E activating mutations, co-expressed with h14-3-3 zeta) (P04049 whole entry Y340E/Y341E): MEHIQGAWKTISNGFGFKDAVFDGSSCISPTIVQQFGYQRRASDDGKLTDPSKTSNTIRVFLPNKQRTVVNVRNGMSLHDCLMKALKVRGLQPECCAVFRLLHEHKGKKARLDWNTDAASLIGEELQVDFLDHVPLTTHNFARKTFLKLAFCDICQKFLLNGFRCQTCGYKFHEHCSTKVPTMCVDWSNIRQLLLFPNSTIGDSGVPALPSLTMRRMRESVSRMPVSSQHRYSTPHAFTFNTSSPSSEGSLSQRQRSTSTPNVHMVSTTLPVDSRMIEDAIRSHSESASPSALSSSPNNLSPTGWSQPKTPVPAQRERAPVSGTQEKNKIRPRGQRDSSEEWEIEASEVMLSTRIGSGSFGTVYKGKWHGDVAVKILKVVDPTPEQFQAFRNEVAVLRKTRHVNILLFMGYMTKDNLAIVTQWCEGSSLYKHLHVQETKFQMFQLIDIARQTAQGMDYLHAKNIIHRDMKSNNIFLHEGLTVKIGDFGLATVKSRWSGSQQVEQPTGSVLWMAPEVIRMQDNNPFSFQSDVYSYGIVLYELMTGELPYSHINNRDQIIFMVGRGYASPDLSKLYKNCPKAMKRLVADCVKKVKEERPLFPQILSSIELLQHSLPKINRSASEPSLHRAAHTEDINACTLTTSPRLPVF
Chain of C-Raf FL (full length CRAF with Y340E and Y341E activating mutations, co-expressed with h14-3-3 zeta) (P63104 whole entry partner): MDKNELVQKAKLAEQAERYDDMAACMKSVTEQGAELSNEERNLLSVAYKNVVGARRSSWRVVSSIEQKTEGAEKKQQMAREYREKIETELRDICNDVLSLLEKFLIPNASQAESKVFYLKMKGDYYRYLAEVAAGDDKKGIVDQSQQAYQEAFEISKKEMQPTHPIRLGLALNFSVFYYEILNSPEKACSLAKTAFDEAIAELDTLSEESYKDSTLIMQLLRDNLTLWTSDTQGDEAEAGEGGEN
Type: biochemical
How it was run: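 Full-length C-Raf (~4 nM) pre-incubated 60 min at room temperature with compound and kinase-dead biotinylated MEK1 (~10 nM) in Tris pH 7.5, 15 mM MgCl2, BSA, DTT. Reaction started with 1 μM ATP and run 1 h at room temperature. Phospho-MEK detected by AlphaScreen with anti-p-MEK antibody.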
Compound Cc1ccc(NC(=O)c2ccnc(C(C)(F)F)c2)cc1-c1cc2n(c(=O)c1)CC[C@@H]1COCCN21 [Example 413, (R)-2-(1,1-difluoroethyl)-N-(4-methyl-3-(8-oxo-1,2,4,4a,5,6-hexahydro-8H-pyrido[2′,1′:2,3]pyrimido[6,1-c][1,4]oxazin-10-yl)phenyl)isonicotinamide] has an IC50 of 0.2 nM.
Cc1ccc(NC(=O)c2ccnc(C(F)(F)F)c2F)cc1-c1cc2n(c(=O)c1)CC[C@@H]1COCCN21 [Example 415, (R)-3-fluoro-N-(4-methyl-3-(8-oxo-1,2,4,4a,5,6-hexahydro-8H-pyrido[2′,1′:2,3]pyrimido[6,1-c][1,4]oxazin-10-yl)phenyl)-2-(trifluoromethyl)isonicotinamide] was tested, and the IC50 was 0.8 nM.
Cc1ccc(NC(=O)c2ccnc(C(F)(F)F)c2F)cc1-c1cc2n(c(=O)c1)CC[C@H]1COCCN21 [Example 416, (S)-3-fluoro-N-(4-methyl-3-(8-oxo-1,2,4,4a,5,6-hexahydro-8H-pyrido[2′,1′:2,3]pyrimido[6,1-c][1,4]oxazin-10-yl)phenyl)-2-(trifluoromethyl)isonicotinamide] showed an IC50 of 0.4 nM.
Compound Cc1ccc(NC(=O)c2ccnc(C(C)(C)F)c2)cc1-c1cc2n(c(=O)c1)CC[C@H]1CCOCCN21 [Example 417, (S)-2-(2-fluoropropan-2-yl)-N-(4-methyl-3-(9-oxo-1,2,5,5a,6,7-hexahydro-4H,9H-pyrido[2′,1′:2,3]pyrimido[1,6-d][1,4]oxazepin-11-yl)phenyl)isonicotinamide] has an IC50 of 0.5 nM.
Work on Cc1ccc(NC(=O)c2ccnc(C(F)(F)F)c2)cc1-c1cc(F)c2c(c1)N1CCOC[C@H]1[C@](F)(CO)C2 [Example 419] yielded an IC50 of 0.5 nM.
Compound Cc1ccc(NC(=O)c2ccnc(C(C)(F)F)c2)cc1-c1cc(F)c2c(c1)N1CCOC[C@H]1[C@](F)(CO)C2 [Example 420, N-(3-((4aS,5S)-5,7-difluoro-5-(hydroxymethyl)-1,2,4,4a,5,6-hexahydro-[1,4]oxazino[4,3-a]quinolin-9-yl)-4-methylphenyl)-2-(1,1-difluoroethyl)isonicotinamide] has an IC50 of 0.6 nM.
In the case of Cc1ncc(NC(=O)c2cccc(C(F)(F)F)c2)cc1-c1cc(F)c2c(c1)N1CCOC[C@H]1[C@](F)(CO)C2 [Example 421, N-(5-((4aS,5S)-5,7-difluoro-5-(hydroxymethyl)-1,2,4,4a,5,6-hexahydro-[1,4]oxazino[4,3-a]quinolin-9-yl)-6-methylpyridin-3-yl)-3-(trifluoromethyl)benzamide], the IC50 is reported as 0.8 nM.
Cc1ccc(NC(=O)c2ccnc(C(C)(C)F)c2)cc1-c1cc(F)c2c(c1)N1CCOC[C@H]1[C@](F)(CO)C2 [Example 422, N-(3-((4aS,5S)-5,7-difluoro-5-(hydroxymethyl)-1,2,4,4a,5,6-hexahydro-[1,4]oxazino[4,3-a]quinolin-9-yl)-4-methylphenyl)-2-(2-fluoropropan-2-yl)isonicotinamide] gave an IC50 of 1 nM.
Cc1ccc(NC(=O)c2cnnc(C(F)(F)F)c2)cc1-c1cc(F)c2c(c1)N1CCOC[C@H]1[C@](F)(CO)C2 [Example 423, N-(3-((4aS,5S)-5,7-difluoro-5-(hydroxymethyl)-1,2,4,4a,5,6-hexahydro-[1,4]oxazino[4,3-a]quinolin-9-yl)-4-methylphenyl)-6-(trifluoromethyl)pyridazine-4-carboxamide] was tested, and the IC50 was 0.7 nM.
Cc1ccc(NC(=O)c2ccnc(C(F)(F)F)c2)cc1-c1cc(F)c2c(c1)N1CCOC[C@@H]1[C@@](F)(CO)C2 [Example 424, N-(3-((4aR,5R)-5,7-difluoro-5-(hydroxymethyl)-1,2,4,4a,5,6-hexahydro-[1,4]oxazino[4,3-a]quinolin-9-yl)-4-methylphenyl)-2-(trifluoromethyl)isonicotinamide] gave an IC50 of 0.2 nM.
Work on Cc1ccc(NC(=O)c2ccnc(C(C)(F)F)c2)cc1-c1cc(F)c2c(c1)N1CCOC[C@@H]1[C@@](F)(CO)C2 [Example 425, N-(3-((4aR,5R)-5,7-difluoro-5-(hydroxymethyl)-1,2,4,4a,5,6-hexahydro-[1,4]oxazino[4,3-a]quinolin-9-yl)-4-methylphenyl)-2-(1,1-difluoroethyl)isonicotinamide] yielded an IC50 of 0.4 nM.
Compound Cc1ncc(NC(=O)c2cccc(C(F)(F)F)c2)cc1-c1cc(F)c2c(c1)N1CCOC[C@@H]1[C@@](F)(CO)C2 [Example 426, N-(5-((4aR,5R)-5,7-difluoro-5-(hydroxymethyl)-1,2,4,4a,5,6-hexahydro-[1,4]oxazino[4,3-a]quinolin-9-yl)-6-methylpyridin-3-yl)-3-(trifluoromethyl)benzamide] has an IC50 of 0.4 nM.
Cc1ccc(NC(=O)c2ccnc(C(C)(C)F)c2)cc1-c1cc(F)c2c(c1)N1CCOC[C@@H]1[C@@](F)(CO)C2 [Example 427, N-(3-((4aR,5R)-5,7-difluoro-5-(hydroxymethyl)-1,2,4,4a,5,6-hexahydro-[1,4]oxazino[4,3-a]quinolin-9-yl)-4-methylphenyl)-2-(2-fluoropropan-2-yl)isonicotinamide] gave an IC50 of 0.6 nM.
Cc1ccc(NC(=O)c2cnnc(C(F)(F)F)c2)cc1-c1cc(F)c2c(c1)N1CCOC[C@@H]1[C@@](F)(CO)C2 [Example 428, N-(3-((4aR,5R)-5,7-difluoro-5-(hydroxymethyl)-1,2,4,4a,5,6-hexahydro-[1,4]oxazino[4,3-a]quinolin-9-yl)-4-methylphenyl)-6-(trifluoromethyl)pyridazine-4-carboxamide] gave an IC50 of 0.1 nM.
Cc1ccc(NC(=O)c2ccnc(C(F)(F)F)c2)cc1-c1cc(F)c2c(c1)N1CCOC[C@H]1[C@@](F)(CO)C2 [Example 429, N-(3-((4aS,5R)-5,7-difluoro-5-(hydroxymethyl)-1,2,4,4a,5,6-hexahydro-[1,4]oxazino[4,3-a]quinolin-9-yl)-4-methylphenyl)-2-(trifluoromethyl)isonicotinamide] gave an IC50 of 0.8 nM.
Cc1ccc(NC(=O)c2ccnc(C(C)(F)F)c2)cc1-c1cc(F)c2c(c1)N1CCOC[C@H]1[C@@](F)(CO)C2 [Example 430, N-(3-((4aS,5R)-5,7-difluoro-5-(hydroxymethyl)-1,2,4,4a,5,6-hexahydro-[1,4]oxazino[4,3-a]quinolin-9-yl)-4-methylphenyl)-2-(1,1-difluoroethyl)isonicotinamide] showed an IC50 of 0.6 nM.
In the case of Cc1ncc(NC(=O)c2cccc(C(F)(F)F)c2)cc1-c1cc(F)c2c(c1)N1CCOC[C@H]1[C@@](F)(CO)C2 [Example 431, N-(5-((4aS,5R)-5,7-difluoro-5-(hydroxymethyl)-1,2,4,4a,5,6-hexahydro-[1,4]oxazino[4,3-a]quinolin-9-yl)-6-methylpyridin-3-yl)-3-(trifluoromethyl)benzamide], the IC50 is reported as 4.4 nM.
Cc1ccc(NC(=O)c2ccnc(C(C)(C)F)c2)cc1-c1cc(F)c2c(c1)N1CCOC[C@H]1[C@@](F)(CO)C2 [Example 432, N-(3-((4aS,5R)-5,7-difluoro-5-(hydroxymethyl)-1,2,4,4a,5,6-hexahydro-[1,4]oxazino[4,3-a]quinolin-9-yl)-4-methylphenyl)-2-(2-fluoropropan-2-yl)isonicotinamide] gave an IC50 of 0.7 nM.
Compound Cc1ccc(NC(=O)c2cnnc(C(F)(F)F)c2)cc1-c1cc(F)c2c(c1)N1CCOC[C@H]1[C@@](F)(CO)C2 [Example 433, N-(3-((4aS,5R)-5,7-difluoro-5-(hydroxymethyl)-1,2,4,4a,5,6-hexahydro-[1,4]oxazino[4,3-a]quinolin-9-yl)-4-methylphenyl)-6-(trifluoromethyl)pyridazine-4-carboxamide] has an IC50 of 0.1 nM.
Compound Cc1ccc(NC(=O)c2cncc(C(F)(F)F)c2)cc1-c1cc(F)c2c(c1)N1CCOC[C@H]1[C@@](F)(CO)C2 [Example 434, N-(3-((4aS,5R)-5,7-difluoro-5-(hydroxymethyl)-1,2,4,4a,5,6-hexahydro-[1,4]oxazino[4,3-a]quinolin-9-yl)-4-methylphenyl)-5-(trifluoromethyl)nicotinamide] has an IC50 of 1.3 nM.
With Cc1ccc(NC(=O)c2ccnc(C(C)(F)F)c2)cc1-c1cc(F)c2c(c1)N1CCOC[C@@H]1[C@](F)(CO)C2 [Example 436, N-(3-((4aR,5S)-5,7-difluoro-5-(hydroxymethyl)-1,2,4,4a,5,6-hexahydro-[1,4]oxazino[4,3-a]quinolin-9-yl)-4-methylphenyl)-2-(1,1-difluoroethyl) isonicotinamide] the IC50 was 0.3 nM.
With Cc1ncc(NC(=O)c2cccc(C(F)(F)F)c2)cc1-c1cc(F)c2c(c1)N1CCOC[C@@H]1[C@](F)(CO)C2 [Example 437, N-(5-((4aR,5S)-5,7-difluoro-5-(hydroxymethyl)-1,2,4,4a,5,6-hexahydro-[1,4]oxazino[4,3-a]quinolin-9-yl)-6-methylpyridin-3-yl)-3-(trifluoro-methyl)benzamide] the IC50 was 0.6 nM.
Compound Cc1ccc(NC(=O)c2ccnc(C(C)(C)F)c2)cc1-c1cc(F)c2c(c1)N1CCOC[C@@H]1[C@](F)(CO)C2 [Example 438, N-(3-((4aR,5S)-5,7-difluoro-5-(hydroxymethyl)-1,2,4,4a,5,6-hexahydro-[1,4]oxazino[4,3-a]quinolin-9-yl)-4-methylphenyl)-2-(2-fluoropropan-2-yl)isonicotinamide] has an IC50 of 0.8 nM.
For Cc1ccc(NC(=O)c2cnnc(C(F)(F)F)c2)cc1-c1cc(F)c2c(c1)N1CCOC[C@@H]1[C@](F)(CO)C2 [Example 439, N-(3-((4aR,5S)-5,7-difluoro-5-(hydroxymethyl)-1,2,4,4a,5,6-hexahydro-[1,4]oxazino[4,3-a]quinolin-9-yl)-4-methylphenyl)-6-(trifluoromethyl) pyridazine-4-carboxamide], the IC50 was 0.1 nM.
Compound Cc1ccc(NC(=O)c2cncc(C(F)(F)F)c2)cc1-c1cc(F)c2c(c1)N1CCOC[C@@H]1[C@](F)(CO)C2 [Example 440, N-(3-((4aR,5S)-5,7-difluoro-5-(hydroxymethyl)-1,2,4,4a,5,6-hexahydro-[1,4]oxazino[4,3-a]quinolin-9-yl)-4-methylphenyl)-5-(trifluoromethyl) nicotinamide] has an IC50 of 0.3 nM.
